Test results published in the NIST ThermoML archive (doi:10.1016/j.jct.2005.11.003).

How the values were obtained:
[1] = xn = mol fraction of the nth substance listed; settings: 298.15 K, 101 kPa, Liquid
[2] = excess molar enthalpy (molar enthalpy of mixing); xn = mol fraction of the nth substance listed; settings: 298.15 K, 101 kPa, Liquid
[3] = refractive index (Na D-line) (dimensionless); settings: 298.15 K; 101.33 kPa; Liquid
[4] = 298.15 K; 101.33 kPa; Liquid

ClCCCCCCl [1,5-dichloropentane] + CCCCOC=O
Settings	excess molar enthalpy [kJ/mol]	mass density [kg/m3]
[1], x2 = 0.0616	–	1083.81
[1], x2 = 0.126	–	1071.76
[1], x2 = 0.1909	–	1059.46
[1], x2 = 0.2522	–	1047.68
[1], x2 = 0.3138	–	1035.64
[1], x2 = 0.3757	–	1023.39
[1], x2 = 0.4364	–	1011.18
[1], x2 = 0.4966	–	998.9
[1], x2 = 0.5548	–	986.84
[1], x2 = 0.6137	–	974.47
[1], x2 = 0.6701	–	962.48
[1], x2 = 0.7247	–	950.68
[1], x2 = 0.7822	–	938.09
[1], x2 = 0.8374	–	925.86
[1], x2 = 0.8906	–	913.92
[1], x2 = 0.9443	–	901.66
[2], x2 = 0.069	0.0472	–
[2], x2 = 0.1384	0.0749	–
[2], x2 = 0.2122	0.0962	–
[2], x2 = 0.2809	0.105	–
[2], x2 = 0.3459	0.105	–
[2], x2 = 0.4058	0.0973	–
[2], x2 = 0.4619	0.0857	–
[2], x2 = 0.4922	0.0701	–
[2], x2 = 0.5374	0.0519	–
[2], x2 = 0.5877	0.0466	–
[2], x2 = 0.6417	0.0345	–
[2], x2 = 0.7001	0.0305	–
[2], x2 = 0.7618	0.0239	–
[2], x2 = 0.8234	0.0153	–
[2], x2 = 0.8876	0.0086	–
[2], x2 = 0.9487	0.0044	–

ClCCCCCCCl [1,6-dichlorohexane] + CCCCOC(=O)CC
[1]
Settings	mass density [kg/m3]
x2 = 0.0591	1052.23
x2 = 0.1161	1041.11
x2 = 0.1728	1030.03
x2 = 0.2284	1019.22
x2 = 0.345	996.62
x2 = 0.4083	984.38
x2 = 0.4668	973.12
x2 = 0.5258	961.74
x2 = 0.6403	939.75
x2 = 0.6994	928.38
x2 = 0.7645	915.95
x2 = 0.8173	905.83
x2 = 0.8835	893.21
x2 = 0.9423	882.05

ClCCCCCCl [1,5-dichloropentane] + CCCCOC(=O)CC
[1]
Settings	mass density [kg/m3]
x2 = 0.0528	1081.66
x2 = 0.1047	1068.55
x2 = 0.1575	1055.43
x2 = 0.2116	1042.24
x2 = 0.3217	1016.04
x2 = 0.3799	1002.5
x2 = 0.4359	989.71
x2 = 0.5529	963.57
x2 = 0.6167	949.63
x2 = 0.6773	936.67
x2 = 0.7411	923.24
x2 = 0.8045	910.15
x2 = 0.8667	897.51
x2 = 0.9333	884.23

CCCCOC(=O)CCC [butyl butanoate] + ClCCCl
[1]
Settings	mass density [kg/m3]
x1 = 0.0297	1221.83
x1 = 0.0605	1198.84
x1 = 0.0933	1176.2
x1 = 0.1275	1153.91
x1 = 0.1649	1131.5
x1 = 0.2054	1109
x1 = 0.2498	1086.2
x1 = 0.2967	1064.01
x1 = 0.3484	1041.64
x1 = 0.4037	1019.73
x1 = 0.4652	997.47
x1 = 0.5324	975.45
x1 = 0.605	953.73
x1 = 0.6862	931.87
x1 = 0.7785	909.66
x1 = 0.8821	887.38

ClCCCCCCCl [1,6-dichlorohexane] + CCCCOC(C)=O
[1]
Settings	mass density [kg/m3]
x2 = 0.0673	1052.28
x2 = 0.1308	1041.35
x2 = 0.1929	1030.53
x2 = 0.2552	1019.5
x2 = 0.3164	1008.57
x2 = 0.3768	997.63
x2 = 0.4368	986.64
x2 = 0.4966	975.54
x2 = 0.554	964.77
x2 = 0.6113	953.89
x2 = 0.6692	942.75
x2 = 0.7252	931.87
x2 = 0.7823	920.59
x2 = 0.8912	898.78
x2 = 0.9466	887.47

CCCCOC(=O)CCC [butyl butanoate] + ClCCCCCCCl
[1]
Settings	mass density [kg/m3]
x1 = 0.0545	1051.6
x1 = 0.1071	1040.01
x1 = 0.16	1028.52
x1 = 0.2136	1017
x1 = 0.2692	1005.25
x1 = 0.3239	993.9
x1 = 0.3815	982.05
x1 = 0.439	970.43
x1 = 0.5565	947.09
x1 = 0.6826	922.79
x1 = 0.7398	911.99
x1 = 0.803	900.24
x1 = 0.8726	887.54
x1 = 0.9323	876.78

CCCCOC=O [butyl methanoate]
Settings	mass density [kg/m3]	refractive index
[3]	–	1.387
[4]	888.17	–
